From PubChem BioAssay (NCI)
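Following 48 hours of exposure in 96-well plates, responses at five concentrations were used to interpolate endpoints linearly. GI50 = concentration required for 50% inhibition of growth. TGI marks complete inhibition of growth.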

Columns and labels:
Assay in all cases: NCI anticancer screen, dose series, 48 h
[1] = tested on: NCI-H522 lung
[2] = tested on: UO-31 renal
[3] = tested on: HCT-116 colon
[4] = tested on: MDA-MB-435
[5] = tested on: SF-539 CNS
[6] = tested on: SR leukemia
[7] = tested on: BT-549 breast
[8] = tested on: COLO 205 colon
[9] = tested on: OVCAR-5 ovarian
[10] = tested on: UACC-257 melanoma

Row | Structure (SMILES) | GI50 [1] | TGI [1] | GI50 [2] | TGI [2] | GI50 [3] | TGI [3] | GI50 [4] | TGI [4] | GI50 [5] | TGI [5] | GI50 [6] | TGI [6] | GI50 [7] | TGI [7] | GI50 [8] | TGI [8] | GI50 [9] | TGI [9] | GI50 [10] | TGI [10]
1 | CCN1CCN(c2cc(C(=O)Nc3cccc(Nc4ccc5c(OC)cccc5n4)c3)cc(C(F)(F)F)c2)CC1 | 1.01 µM | 4 µM | 0.746 µM | 3.88 µM | 0.872 µM | 3.54 µM | 1.16 µM | 4.93 µM | 3.28 µM | 7.31 µM | 883 nM | 11.7 µM | 3.78 µM | 8.67 µM | 0.654 µM | 1.49 µM | 2.78 µM | 7.84 µM | 1.02 µM | 3.6 µM
2 | COc1cc(S(=O)(=O)Nc2nc(-c3ccc(N4C(=O)C(C)SC4c4ccccc4O)cc3)cs2)ccc1Cl (centres undefined) | 53.7 µM | > 100 µM | 37.2 µM | > 100 µM | 28.6 µM | > 100 µM | 43.6 µM | > 100 µM | 32.6 µM | > 100 µM | 43300 nM | > 100 µM | 32 µM | > 100 µM | 40.6 µM | > 100 µM | 49.5 µM | > 100 µM | 32.8 µM | > 100 µM
3 | Nc1c(C(=O)c2cccc(C(O)CO)c2)cnn1-c1ccc(F)cc1 (centres undefined) | > 25 µM | > 25 µM | > 25 µM | > 25 µM | > 25 µM | > 25 µM | > 25 µM | > 25 µM | > 25 µM | > 25 µM | > 25000 nM | > 25 µM | > 25 µM | > 25 µM | > 25 µM | > 25 µM | > 25 µM | > 25 µM | > 25 µM | > 25 µM
4 | CC(C)C1(NC(=O)C2CC3c4cccc5[nH]cc(c45)CC3N(C)C2)OC2(O)C3CCCN3C(=O)C(Cc3ccccc3)N2C1=O (centres undefined) |  | > 100 µM |  | > 100 µM |  | > 100 µM |  | > 100 µM |  | > 100 µM |  | 41.2 µM |  | > 100 µM |  | > 100 µM |  | > 100 µM |  | > 100 µM
5 | Cc1c(Nc2nccc3cc(CN4CC[C@@H](O)C4)cnc23)cccc1-c1cccc(-c2nc3cc(CN4CC[C@@H](C(=O)O)C4)cc(C#N)c3o2)c1C | 13.1 µM | 30.6 µM | 4.7 µM | > 100 µM | 6.06 µM | 23.6 µM | 15.3 µM | 35.1 µM | 5.9 µM | 28.1 µM | 2950 nM | 24.7 µM | 1.75 µM | 8.68 µM | 18.7 µM | > 100 µM | 53.7 µM | > 100 µM | 14.2 µM | 32.5 µM
6 | O=C1CS/C(=N/S(=O)(=O)c2ccc(N3N=C4c5ccccc5CC4C3c3cccs3)cc2)N1C(=O)c1ccccc1 (centres undefined) | 60.1 µM | > 100 µM | > 100 µM | > 100 µM | 22 µM | 55.9 µM | 37.4 µM | > 100 µM | 44.6 µM | > 100 µM |  |  | 33.5 µM | > 100 µM | 51.1 µM | > 100 µM | 32.2 µM | > 100 µM | > 100 µM | > 100 µM
7 | O=c1[nH]c2ccccc2c(O)c1/C=N/C(=S)NC1CCCCC1 |  | > 100 µM |  | > 100 µM |  | > 100 µM |  | > 100 µM |  | > 100 µM |  |  |  | > 100 µM |  | > 100 µM |  | > 100 µM |  | > 100 µM
8 | CC12OC(C(=O)C13CC3)C1C(=O)c3c(O)ccc(O)c3C(=O)C12 (centres undefined) | 16.1 µM | 32 µM | 22.8 µM | 55.6 µM | 14.3 µM | 28.2 µM | 18.4 µM | 36.5 µM | 19.4 µM | 49.9 µM |  |  | 22.1 µM | 51.8 µM | 15.4 µM | 35.8 µM | 19.4 µM | 43.8 µM | 13.9 µM | 29.1 µM
9 | NC1=NC(SCc2ccccc2CCl)c2ncn(Cc3ccccc3CCl)c2N1 (centres undefined) |  |  | 1.51 µM | 3.08 µM | 1.47 µM | 3.06 µM | 1.53 µM | 3.28 µM | 2.92 µM | 10.4 µM | 1560 nM | 6.46 µM | 1.7 µM | 3.35 µM | 1.64 µM | 3.49 µM | 2.7 µM | 9.88 µM | 1.54 µM | 3.07 µM
10 | CC(=O)c1c[nH]c2ccc(-c3ccnc(Nc4ccc(NC(=O)C5CCCC5)c(CN5CCOCC5)c4)n3)cc12 | 0.0439 µM | 0.309 µM | 0.0273 µM | 0.108 µM | 0.0138 µM | 0.953 µM | 0.0286 µM | 0.121 µM | 0.0229 µM | 0.0681 µM |  |  | 0.0328 µM | 0.904 µM | 0.0194 µM | 0.0679 µM | 0.0296 µM | 0.222 µM | 0.0349 µM | 0.175 µM
11 | N#C/C(=C/N1CCN(C(=O)c2ccco2)C1=S)C(=O)Nc1ccc(Cl)cc1 | 16.7 µM | 30.2 µM | 12 µM | 26.6 µM | 15.2 µM | > 50 µM | 15.2 µM | > 50 µM |  |  | 1560 nM | 21.3 µM | 8.63 µM | 21.9 µM | 25.6 µM | > 50 µM |  |  | 16.5 µM | 48.4 µM
12 | CC1=C(CO)C(=O)O[C@@H]([C@@H](C)[C@H]2CC[C@H]3[C@@H]4C[C@H]5O[C@]56[C@@H](O)C=CC(=O)[C@]6(C)[C@H]4CC[C@]23C)C1 |  | 0.114 µM |  | 1.31 µM |  | 0.538 µM | 0.252 µM | 0.976 µM |  | 2.3 µM |  |  | 0.79 µM | 2.15 µM |  | 0.81 µM |  | 2.64 µM |  | 2.32 µM
13 | CCCCCCCCCCCNC=O |  | 85.3 µM |  | > 100 µM |  | > 100 µM |  | > 100 µM |  | > 100 µM |  |  |  | 57.5 µM |  | > 100 µM |  | > 100 µM |  | > 100 µM
14 | O=C(O)CSC1=NNC2(C(=O)N1)c1ccccc1-c1ccccc12 |  | > 10 µM |  | > 10 µM |  | > 10 µM |  | > 10 µM |  | > 10 µM |  | > 10 µM |  | > 10 µM |  | > 10 µM |  |  |  | > 10 µM
15 | OCCCCC#Cc1ccccc1C#Cc1cccnc1 | 41.9 µM | > 100 µM | 25.2 µM | 90.4 µM | 45.9 µM | > 100 µM | 32.2 µM | > 100 µM | 43 µM | > 100 µM |  |  | 28.4 µM | > 100 µM | 28.4 µM | 94.4 µM | 27.5 µM | > 100 µM | 25 µM | 54.1 µM
